# Results as given in US11230538B2, “Herbicides” (SYNGENTA PARTICIPATIONS AG, priority 2016, dated 2022).
# Assays:
# Type in all cases: in vivo
# [1] = system: Echinochloa crus-galli (ECHCG); test: B2 Post-emergence herbicidal activity; set-up: key to Post-emergence herbicidal activity, ECHCG (damage score 0-5): 5=total damage to plant; 0=no damage to plant; settings: post-emergence application, rate 1000 g/ha, evaluated after 13 days
# Summary of the method: (§1)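 Injury was rated 13 days after treatment from 0 (no damage) to 5 (total damage). The spray, applied 8 days after sowing, was an aqueous solution of the active ingredient from an acetone/water (50:50) formulation with 0.5% Tween 20. Plants were kept at 24/16° C, 14 h light, 65% humidity.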
# Setaria fabenr (SETFA) = test: B1 Pre-emergence herbicidal activity; set-up: key to Pre-emergence herbicidal activity, SETFA (damage score 0-5): 5=total damage to plant; 0=no damage to plant; settings: pre-emergence application, rate 1000 g/ha, evaluated after 13 days
# Summary of the method: (§2)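 Damage was rated 13 days after treatment, from 0 for none to 5 for total. The spray, in acetone/water 50:50 with 0.5% Tween 20, was applied pre-emergence, one day after seeds were sown in soil. Plants grew under glasshouse control at 24/16 °C, 14 h light, 65% humidity.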
# [2] = system: Echinochloa crus-galli (ECHCG); test: B1 Pre-emergence herbicidal activity; set-up: key to Pre-emergence herbicidal activity, ECHCG (damage score 0-5): 5=total damage to plant; 0=no damage to plant; settings: pre-emergence application, rate 1000 g/ha, evaluated after 13 days
# Summary of the method: as §2
# [3] = system: Triticum aestivium (TRZAW); test: B2 Post-emergence herbicidal activity; set-up: key: 5=total damage to plant; 0=no damage to plant; settings: post-emergence application, rate 1000 g/ha, evaluated after 13 days
# Summary of the method: as §1
# Setaria fabenri (SETFA) = test: B2 Post-emergence herbicidal activity; set-up: key: 5=total damage to plant; 0=no damage to plant; settings: post-emergence application, rate 1000 g/ha, evaluated after 13 days
# Summary of the method: as §1
# [4] = system: Alopecurus myosuroides (ALOMY); test: B2 Post-emergence herbicidal activity; set-up: key: 5=total damage to plant; 0=no damage to plant; settings: post-emergence application, rate 1000 g/ha, evaluated after 13 days
# Summary of the method: as §1
# Lolium perenne (LOLPE) [5] = test: B1 Pre-emergence herbicidal activity; set-up: key to Pre-emergence herbicidal activity, LOLPE (damage score 0-5): 5=total damage to plant; 0=no damage to plant; settings: pre-emergence application, rate 1000 g/ha, evaluated after 13 days
# Summary of the method: as §2
# [6] = system: Triticum aestivium (TRZAW); test: B1 Pre-emergence herbicidal activity; set-up: key: 5=total damage to plant; 0=no damage to plant; settings: pre-emergence application, rate 1000 g/ha, evaluated after 13 days
# Summary of the method: as §2
# Avena fatua (AVEFA) [7] = test: B1 Pre-emergence herbicidal activity; set-up: key: 5=total damage to plant; 0=no damage to plant; settings: pre-emergence application, rate 1000 g/ha, evaluated after 13 days
# Summary of the method: as §2
# [8] = system: Alopecurus myosuroides (ALOMY); test: B1 Pre-emergence herbicidal activity; set-up: key: 5=total damage to plant; 0=no damage to plant; settings: pre-emergence application, rate 1000 g/ha, evaluated after 13 days
# Summary of the method: as §2
# Lolium perenne (LOLPE) [9] = test: B2 Post-emergence herbicidal activity; settings: post-emergence application, rate 1000 g/ha, evaluated after 13 days
# Summary of the method: as §1
# Avena fatua (AVEFA) [10] = test: B2 Post-emergence herbicidal activity; settings: post-emergence application, rate 1000 g/ha, evaluated after 13 days
# Summary of the method: as §1
Compound,"Post-emergence herbicidal activity, ECHCG (damage score 0-5) [1]","Pre-emergence herbicidal activity, SETFA (damage score 0-5) (Setaria fabenr (SETFA))","Pre-emergence herbicidal activity, ECHCG (damage score 0-5) [2]","Post-emergence herbicidal activity, TRAZW (damage score 0-5) [3]","Post-emergence herbicidal activity, SETFA (damage score 0-5) (Setaria fabenri (SETFA))","Post-emergence herbicidal activity, ALOMY (damage score 0-5) [4]","Pre-emergence herbicidal activity, LOLPE (damage score 0-5) (Lolium perenne (LOLPE) [5])","Pre-emergence herbicidal activity, TRAZW (damage score 0-5) [6]","Pre-emergence herbicidal activity, AVEFA (damage score 0-5) (Avena fatua (AVEFA) [7])","Pre-emergence herbicidal activity, ALOMY (damage score 0-5) [8]","Post-emergence herbicidal activity, LOLPE (damage score 0-5) (Lolium perenne (LOLPE) [9])","Post-emergence herbicidal activity, AVEFA (damage score 0-5) (Avena fatua (AVEFA) [10])"
CSCCN(C(=O)C(C)C)c1ccc(-c2cncc(F)c2)nc1C(F)(F)F [Compound C88],1,2,1,1,2,1,0,0,0,0,1,1
CC(C)C(=O)N(c1ccc(-c2cncc(F)c2)nc1C(F)(F)F)C(C)C [Compound C90],4,2,2,1,4,0,0,0,0,0,1,2
C#CCN(C(=O)CC)c1ccc(-c2cncc(F)c2)nc1C(F)(F)F [Compound C94],4,5,2,0,5,0,1,0,1,0,2,2
CCC(=O)N(CCCN(CC)CC)c1ccc(-c2cncc(F)c2)nc1C(F)(F)F [Compound C95],5,4,3,1,5,1,1,0,1,0,2,2
CCC(=O)N(COCC(C)(C)C)c1ccc(-c2cncc(F)c2)nc1C(F)(F)F [Compound C99],4,5,2,0,5,0,1,0,1,0,2,2
O=C(c1ccccc1)N(CC1CC1)c1ccc(-c2cncc(F)c2)nc1C(F)(F)F [Compound C103],1,1,0,0,2,0,0,0,0,0,1,2
